US8536202B2, “Triazole-substituted anthranilamides as pesticides” (Bayer Cropscience AG, priority 2010, dated 2013)
Where two headings read alike, the source gives them in different places.

What was measured:
[1] = log P determination by HPLC on reversed-phase columns (EEC Directive 79/831 Annex V.A8); type: physicochemical; settings: pH 2.7
In short: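 log P from reversed-phase LC-MS retention at pH 2.7, 0.1% formic acid water/acetonitrile gradient 10–95% acetonitrile. Calibrated against C3–C16 unbranched alkan-2-ones, interpolating linearly between adjacent alkanones.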

[2] = tested on: green peach aphid (Myzus persicae); test: Myzus test (MYZUPE spray treatment), Use Example 4; type: in vivo; settings: 144 h, read-out: activity in %
In short: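 Compound was formulated in acetone/dimethylformamide with alkylaryl polyglycol ether emulsifier and diluted in emulsifier-containing water. It was sprayed onto Chinese cabbage leaf discs infested with all stages of Myzus persicae. Mortality (%) was scored after 6 days, where 100% means all aphids killed.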

[3] = tested on: caterpillars of the armyworm (Spodoptera frugiperda); test: Spodoptera frugiperda test (SPODFR spray treatment); type: in vivo; settings: 168 h, read-out: activity in %
In short: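 Maize leaf discs sprayed with compound diluted in emulsifier-containing water (acetone/DMF solvent, alkylaryl polyglycol ether emulsifier), dried, then infested with armyworm caterpillars. Kill scored after 7 days as % mortality, 100% = all caterpillars dead, 0% = none.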

[4] = tested on: larvae of the mustard beetle (Phaedon cochleariae); test: Phaedon test (PHAECO spray treatment); type: in vivo; settings: 168 h, read-out: activity in %
In short: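 Compound dissolved in acetone/dimethylformamide with alkylaryl polyglycol ether emulsifier, then diluted with emulsifier-containing water to test concentration for spray treatment of Phaedon cochleariae larvae. Activity scored after 7 days as % larvae killed (100% = all dead, 0% = none).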

[5] = HPLC on reversed-phase columns (C 18), EEC Directive 79/831 Annex V.A8, read-out: logP
[6] = reversed-phase C18 HPLC column, HPLC on reversed-phase columns (C 18), EEC Directive 79/831 Annex V.A8, read-out: logP

Row | chromatographic logP [1, 6] | SMILES | chromatographic logP [1] | pest or weed control at 100 g/ha ([2]; 100 g/ha, after 6 days) [%] | pest or weed control at 100 g/ha ([3]; 100 g/ha, after 7 days) [%] | pest or weed control at 100 g/ha ([4]; 100 g/ha, after 7 days) [%] | chromatographic logP [1, 5] | pest or weed control at 100 g/ha [2] [%] | pest or weed control at 100 g/ha [3] [%] | pest or weed control at 100 g/ha [4] [%]
1 |  | Cc1cc(Cl)cc(C(=O)NC(C)(C)C)c1NC(=O)c1cc(Cn2cc(C(F)(F)C(F)(F)F)nn2)nn1-c1ncccc1Cl [Example 304] | 3.85 | 100 | 100 | 100 |  |  |  | 
2 |  | Cc1cc(Cl)cc(C(=O)NC2CC2)c1NC(=O)c1cc(Cn2ncc(C(F)(F)F)n2)nn1-c1ncccc1Cl [Example 137] | 3.18 | 100 | 100 | 100 |  |  |  | 
3 |  | CNC(=O)c1cc(C#N)cc(C)c1NC(=O)c1cc(Cn2cc(C(F)(F)C(F)(F)F)nn2)nn1-c1ncccc1Cl [Example 317] | 2.68 | 100 | 100 | 100 |  |  |  | 
4 |  | Cc1cc(Cl)cc(C(=O)NCC2CC2)c1NC(=O)c1cc(Cn2cc(C(F)(F)C(F)(F)F)nn2)nn1-c1ncccc1Cl [Example 305] | 3.55 | 100 | 100 | 100 |  |  |  | 
5 |  | Cc1cc(Cl)cc(C(=O)NCC#N)c1NC(=O)c1cc(Cn2cc(C(F)(F)F)nn2)nn1-c1ncccc1Cl [Example 196] | 2.61 | 100 | 100 | 100 |  |  |  | 
6 |  | CSC[C@H](C)NC(=O)c1cc(Cl)cc(C)c1NC(=O)c1cc(Cn2ncc(C(F)(F)C(F)(F)C(F)(F)F)n2)nn1-c1ncccc1Cl [Example 383] |  |  |  |  | 4.41 | 80 | 100 | 100
7 |  | Cc1cc(C#N)cc(C(=O)NCC#N)c1NC(=O)c1cc(Cn2ncc(C(F)(F)F)n2)nn1-c1ncccc1Cl [Example 132] | 2.76 | 100 | 100 | 100 |  |  |  | 
8 |  | Cc1cc(I)cc(C(N)=O)c1NC(=O)c1cc(Cn2cc(C(F)(F)F)nn2)nn1-c1ncccc1Cl [Example 213] | 2.64 | 100 | 100 | 100 |  |  |  | 
9 | 3.3 | Cc1cc(C#N)cc(C(=O)NC2CC2)c1NC(=O)c1cc(Cn2ncc(C(F)(F)F)n2)nn1-c1ccccc1Cl [Example 289] |  | 100 | 100 | 100 |  |  |  | 
10 | 4.19 | Cc1cc(Cl)cc(C(=O)NC(C)(C)C)c1NC(=O)c1cc(Cn2cc(C(F)(C(F)(F)F)C(F)(F)F)nn2)nn1-c1ncccc1Cl [Example 228] |  | 80 | 100 | 100 |  |  |  | 
11 |  | Cc1cc(I)cc(C(=O)NCC#N)c1NC(=O)c1cc(Cn2cc(C(F)(F)F)nn2)nn1-c1ncccc1Cl [Example 215] | 2.82 | 90 | 100 | 100 |  |  |  | 
12 |  | CNC(=O)c1cc(C#N)cc(C)c1NC(=O)c1cc(Cn2cc(C(F)(F)F)nn2)nn1-c1ncccc1Cl [Example 177] | 2.28 | 100 | 100 | 100 |  |  |  | 
13 |  | Cc1cc(Cl)cc(C(=O)NC2CC2)c1NC(=O)c1cc(Cn2cc(C(F)(F)C(F)(F)F)nn2)nn1-c1ncccc1Cl [Example 301] | 3.26 | 90 | 100 | 100 |  |  |  | 
14 |  | Cc1cc(C#N)cc(C(=O)NC2CC2)c1NC(=O)c1cc(Cn2ncc(C(F)(F)F)n2)nn1-c1ncccc1Cl [Example 126] | 2.9 | 100 | 83 | 100 |  |  |  | 
15 |  | Cc1cc(C#N)cc(C(=O)NC(C)C)c1NC(=O)c1cc(Cn2cc(C(F)(F)C(F)(F)C(F)(F)F)nn2)nn1-c1ncccc1Cl [Example 329] |  |  |  |  | 3.42 | 100 | 100 | 100
16 |  | Cc1cc(Cl)cc(C(=O)NCC2CC2)c1NC(=O)c1cc(Cn2cc(C(F)(F)C(F)(F)C(F)(F)F)nn2)nn1-c1ncccc1Cl [Example 325] |  |  |  |  | 3.9 | 100 | 100 | 100
17 | 2.92 | CCNC(=O)c1cc(C#N)cc(C)c1NC(=O)c1cc(Cn2cc(C(F)(F)F)nn2)nn1-c1ccccc1Cl [Example 294] |  | 100 | 100 | 100 |  |  |  | 

Row | chromatographic logP [1, 6] | SMILES | chromatographic logP [1] | pest or weed control at 100 g/ha ([2]; 100 g/ha, after 6 days) [%] | pest or weed control at 100 g/ha ([3]; 100 g/ha, after 7 days) [%] | pest or weed control at 100 g/ha ([4]; 100 g/ha, after 7 days) [%] | chromatographic logP [1, 5] | pest or weed control at 100 g/ha [2] [%] | pest or weed control at 100 g/ha [3] [%] | pest or weed control at 100 g/ha [4] [%]
18 |  | CSC[C@H](C)NC(=O)c1cc(Cl)cc(C)c1NC(=O)c1cc(Cn2ncc(C(F)(F)F)n2)nn1-c1ncccc1Cl [Example 144] | 3.74 | 100 | 100 | 100 |  |  |  | 
19 |  | CCNC(=O)c1cc(C#N)cc(C)c1NC(=O)c1cc(Cn2ncc(C(F)(F)F)n2)nn1-c1ncccc1Cl [Example 127] | 2.88 | 90 | 100 | 100 |  |  |  | 
20 |  | Cc1cc(I)cc(C(N)=O)c1NC(=O)c1cc(Cn2ncc(C(F)(F)C(F)(F)C(F)(F)F)n2)nn1-c1ncccc1Cl [Example 381] |  |  |  |  | 3.7 | 100 | 100 | 100
21 | 4.02 | CSC[C@H](C)NC(=O)c1cc(Cl)cc(Cl)c1NC(=O)c1cc(Cn2cc(C(F)(C(F)(F)F)C(F)(F)F)nn2)nn1-c1ncccc1Cl [Example 246] |  | 80 | 100 | 100 |  |  |  | 
22 | 3.46 | CNC(=O)c1cc(C#N)cc(C)c1NC(=O)c1cc(Cn2nncc2C(F)(C(F)(F)F)C(F)(F)F)nn1-c1ccccc1Cl [Example 298] |  | 80 | 100 | 100 |  |  |  | 
23 |  | CNC(=O)c1cc(I)cc(C)c1NC(=O)c1cc(Cn2cc(C(F)(F)C(F)(F)F)nn2)nn1-c1ncccc1Cl [Example 308] | 3.23 | 100 | 100 | 100 |  |  |  | 
24 |  | CNC(=O)c1cc(I)cc(C)c1NC(=O)c1cc(Cn2ncc(C(F)(F)C(F)(F)F)n2)nn1-c1ncccc1Cl [Example 358] | 3.64 | 80 | 100 | 100 |  |  |  | 
25 |  | Cc1cc(Cl)cc(C(=O)NC(C)C2CC2)c1NC(=O)c1cc(Cn2cc(C(F)(F)C(F)(F)F)nn2)nn1-c1ncccc1Cl (stereo not drawn) [Example 300] | 3.79 | 90 | 100 | 100 |  |  |  | 
26 |  | Cc1cc(C#N)cc(C(=O)NC2CC2)c1NC(=O)c1cc(Cn2ncc(C(F)(F)C(F)(F)F)n2)nn1-c1ncccc1Cl [Example 353] | 3.25 | 100 | 100 | 100 |  |  |  | 
27 |  | CNC(=O)c1cc(Cl)cc(C)c1NC(=O)c1cc(Cn2cc(C(F)(F)F)nn2)nn1-c1ncccc1Cl [Example 187] | 2.6 | 100 | 100 | 100 |  |  |  | 
28 | 4.45 | CSC[C@H](C)NC(=O)c1cc(Cl)cc(C)c1NC(=O)c1cc(Cn2ncc(C(F)(C(F)(F)F)C(F)(F)F)n2)nn1-c1ncccc1Cl [Example 262] |  | 80 | 100 | 100 |  |  |  | 
29 |  | Cc1cc(C#N)cc(C(=O)NC(C)C)c1NC(=O)c1cc(Cn2cc(C(F)(F)C(F)(F)F)nn2)nn1-c1ncccc1Cl [Example 320] | 3.11 | 100 | 100 | 100 |  |  |  | 
30 |  | CCNC(=O)c1cc(Cl)cc(C)c1NC(=O)c1cc(Cn2cc(C(F)(F)C(F)(F)F)nn2)nn1-c1ncccc1Cl [Example 302] | 3.26 | 80 | 100 | 100 |  |  |  | 
31 |  | Cc1cc(C#N)cc(C(=O)NC(C)C2CC2)c1NC(=O)c1cc(Cn2cc(C(F)(F)C(F)(F)C(F)(F)F)nn2)nn1-c1ncccc1Cl (stereo not drawn) [Example 331] |  |  |  |  | 3.71 | 100 | 100 | 100
32 |  | Cc1cc(C#N)cc(C(=O)NC2CCC2)c1NC(=O)c1cc(Cn2ncc(C(F)(F)F)n2)nn1-c1ncccc1Cl [Example 131] | 3.23 | 90 | 100 | 100 |  |  |  | 
33 |  | CCNC(=O)c1cc(Cl)cc(C)c1NC(=O)c1cc(Cn2cc(C(F)(F)F)nn2)nn1-c1ncccc1Cl [Example 189] | 2.9 | 80 | 100 | 100 |  |  |  | 
